According to PubChem BioAssay (NCI):
Where “and” joins values, the source holds several entries; their conditions need not be identical. Equal entries are not always repeated.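 In this assay, cells in 96-well plates receive the compound at five concentrations for 48 hours. Endpoints are linearly interpolated between the surrounding concentrations. GI50 = concentration required for 50% inhibition of growth. TGI: concentration producing complete growth inhibition.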

Legend:
Experiment in all cases: NCI anticancer screen, dose series, 48 h
COLO 205 colon = test system: COLO 205 colon
A498 renal = test system: A498 renal
OVCAR-3 ovarian = test system: OVCAR-3 ovarian
NCI-H522 lung = test system: NCI-H522 lung
HOP-92 NSCLC = test system: HOP-92 NSCLC
MALME-3M melanoma = test system: MALME-3M melanoma
OVCAR-4 ovarian = test system: OVCAR-4 ovarian
HL-60(TB) leukemia = test system: HL-60(TB) leukemia
HCT-15 colon = test system: HCT-15 colon
M14 melanoma = test system: M14 melanoma
EKVX NSCLC = test system: EKVX NSCLC
UACC-62 melanoma = test system: UACC-62 melanoma
OVCAR-5 ovarian = test system: OVCAR-5 ovarian
SK-MEL-2 melanoma = test system: SK-MEL-2 melanoma
SNB-19 CNS = test system: SNB-19 CNS
U251 CNS = test system: U251 CNS
CCRF-CEM leukemia = test system: CCRF-CEM leukemia
SNB-75 CNS = test system: SNB-75 CNS
DMS 273 small cell lung = test system: DMS 273 small cell lung
ACHN renal = test system: ACHN renal
SW-620 colon = test system: SW-620 colon
SF-295 CNS = test system: SF-295 CNS
LXFL 529 NSCLC = test system: LXFL 529 NSCLC
LOX IMVI melanoma = test system: LOX IMVI melanoma
SK-OV-3 ovarian = test system: SK-OV-3 ovarian
KM20L2 colon = test system: KM20L2 colon
NCI-H460 lung = test system: NCI-H460 lung
NCI-H23 lung = test system: NCI-H23 lung
MOLT-4 leukemia = test system: MOLT-4 leukemia
SF-539 CNS = test system: SF-539 CNS
UACC-257 melanoma = test system: UACC-257 melanoma
SN12C renal = test system: SN12C renal
SNB-78 CNS = test system: SNB-78 CNS
SK-MEL-5 melanoma = test system: SK-MEL-5 melanoma
HCT-116 colon = test system: HCT-116 colon
A549 NSCLC = test system: A549 NSCLC
786-0 renal = test system: 786-0 renal
KM12 colon = test system: KM12 colon
RPMI-8226 leukemia = test system: RPMI-8226 leukemia
DLD-1 colon = test system: DLD-1 colon
SF-268 CNS = test system: SF-268 CNS
OVCAR-8 ovarian = test system: OVCAR-8 ovarian
IGROV1 ovarian = test system: IGROV1 ovarian
HOP-62 NSCLC = test system: HOP-62 NSCLC
UO-31 renal = test system: UO-31 renal
TK-10 renal = test system: TK-10 renal
SK-MEL-28 melanoma = test system: SK-MEL-28 melanoma
HT29 colon = test system: HT29 colon
K-562 leukemia = test system: K-562 leukemia
BT-549 breast = test system: BT-549 breast
HOP-18 NSCLC = test system: HOP-18 NSCLC
NCI-H226 lung = test system: NCI-H226 lung
T-47D breast = test system: T-47D breast
M19-MEL melanoma = test system: M19-MEL melanoma

N.N.N.O=[N+]([O-])[O-].O=[N+]([O-])[O-].O=[N+]([O-])[O-].O=[N+]([O-])[O-].[Co+3]
TGI (COLO 205 colon): > 100 µM | TGI (A498 renal): > 100 µM | TGI (OVCAR-3 ovarian): > 100 µM | TGI (NCI-H522 lung): > 100 µM | TGI (HOP-92 NSCLC): > 100 µM | TGI (MALME-3M melanoma): > 100 µM | TGI (OVCAR-4 ovarian): > 100 µM | TGI (HL-60(TB) leukemia): > 100 µM | TGI (HCT-15 colon): > 100 µM | TGI (M14 melanoma): > 100 µM | TGI (EKVX NSCLC): > 100 µM | TGI (UACC-62 melanoma): > 100 µM | TGI (OVCAR-5 ovarian): > 100 µM | TGI (SK-MEL-2 melanoma): > 100 µM | TGI (SNB-19 CNS): > 100 µM | TGI (U251 CNS): > 100 µM | TGI (CCRF-CEM leukemia): > 100 µM | TGI (SNB-75 CNS): > 100 µM | GI50 (DMS 273 small cell lung): > 100 µM | TGI (DMS 273 small cell lung): > 100 µM | TGI (ACHN renal): > 100 µM | TGI (SW-620 colon): > 100 µM | TGI (SF-295 CNS): > 100 µM | GI50 (LXFL 529 NSCLC): > 100 µM | TGI (LXFL 529 NSCLC): > 100 µM | TGI (LOX IMVI melanoma): > 100 µM | TGI (SK-OV-3 ovarian): > 100 µM | GI50 (KM20L2 colon): > 100 µM | TGI (KM20L2 colon): > 100 µM | TGI (NCI-H460 lung): > 100 µM | TGI (NCI-H23 lung): > 100 µM | TGI (MOLT-4 leukemia): > 100 µM | TGI (SF-539 CNS): > 100 µM | TGI (UACC-257 melanoma): > 100 µM | TGI (SN12C renal): > 100 µM | GI50 (SNB-78 CNS): > 100 µM | TGI (SNB-78 CNS): > 100 µM | TGI (SK-MEL-5 melanoma): > 100 µM | TGI (HCT-116 colon): > 100 µM | TGI (A549 NSCLC): > 100 µM | TGI (786-0 renal): > 100 µM | TGI (KM12 colon): > 100 µM | TGI (RPMI-8226 leukemia): > 100 µM | GI50 (DLD-1 colon): > 100 µM | TGI (DLD-1 colon): > 100 µM | TGI (SF-268 CNS): > 100 µM | TGI (OVCAR-8 ovarian): > 100 µM | TGI (IGROV1 ovarian): > 100 µM | TGI (HOP-62 NSCLC): > 100 µM | TGI (UO-31 renal): > 100 µM | TGI (TK-10 renal): > 100 µM | TGI (SK-MEL-28 melanoma): > 100 µM | TGI (HT29 colon): > 100 µM | TGI (K-562 leukemia): > 100 µM

Nc1nc(=S)c2ncn(C3CC(O)C(CO)O3)c2[nH]1 (stereo unspecified)
TGI (BT-549 breast): 883 µM and 4760 µM | TGI (HOP-18 NSCLC): > 983 µM and 4020 µM | GI50 (SNB-19 CNS): 77.3 µM and 753 µM | TGI (SNB-19 CNS): > 5000 µM | TGI (U251 CNS): 901 µM and > 4730 µM | TGI (SNB-75 CNS): 377 µM and 3000 µM | TGI (SW-620 colon): 385 µM and 3540 µM | TGI (SF-295 CNS): 382 µM and 3310 µM | TGI (NCI-H226 lung): 639 µM and > 5000 µM | TGI (KM20L2 colon): 421 µM and 2940 µM | TGI (T-47D breast): 438 µM and > 3110 µM | TGI (SN12C renal): 353 µM and 3130 µM | TGI (SNB-78 CNS): > 5000 µM | TGI (786-0 renal): > 2350 µM | TGI (KM12 colon): 75 µM and 700 µM | TGI (M19-MEL melanoma): > 4680 µM | TGI (DLD-1 colon): 340 µM and 1740 µM | TGI (SF-268 CNS): 555 µM and > 5000 µM | TGI (IGROV1 ovarian): 521 µM and 2870 µM | TGI (SK-MEL-28 melanoma): 594 µM and > 5000 µM | TGI (HT29 colon): > 466 µM and 2190 µM | TGI (K-562 leukemia): 333 µM and 2590 µM
